Assay results from ChEMBL document CHEMBL5154647, “Discovery of seneciobipyrrolidine derivatives for the amelioration of glucose homeostasis disorders through 4E-BP1/Akt/AMPK signaling activation” (Eur J Med Chem, 2022).
The source made the active and inactive calls. The calls are words filed in the database; no cut-off is given here.

Tests used:
[1] = test system: L6; assay: Induction of glucose uptake in rat L6 myoblasts at 20 uM measured after 2 hrs by liquid scintillation counter; assay type: functional
[2] = test system: L6; assay: Induction of glucose uptake in rat L6 myoblasts preincubated for 3 hrs with compound and in presence of 2-deoxyglucose measured after 1 hrs by DNTB reagent based colorimetric assay; assay type: functional, cell-based
[3] = test system: L6; assay: Induction of glucose uptake in rat L6 myoblasts assessed as 2-DG concentration at 25 uM preincubated for 3 hrs and in presence of 2-deoxyglucose measured after 1 hrs by DNTB reagent based colorimetric assay; assay type: functional; conditions: time 4 hrs
[4] = Half life in Sprague-Dawley rat at 5 mg/kg, iv measured upto 24 hrs by LC/MS/MS analysis; assay type: ADME, organism-based; conditions: in vivo
[5] = Cmax in Sprague-Dawley rat at 5 mg/kg, iv measured upto 24 hrs by LC/MS/MS analysis; assay type: ADME, organism-based; design: dose 5 mg/kg, time < 24 hrs, route iv; conditions: in vivo
[6] = AUC (0 to t) in Sprague-Dawley rat at 5 mg/kg, iv measured upto 24 hrs by LC/MS/MS analysis; assay type: ADME, organism-based; design: dose 5 mg/kg, time < 24 hrs, route iv; conditions: in vivo
[7] = Tmax in Sprague-Dawley rat at 20 mg/kg, po measured upto 10 hrs by LC/MS/MS analysis; assay type: ADME, organism-based; conditions: in vivo
[8] = Half life in Sprague-Dawley rat at 20 mg/kg, po measured upto 10 hrs by LC/MS/MS analysis; assay type: ADME, organism-based; conditions: in vivo
[9] = Cmax in Sprague-Dawley rat at 20 mg/kg, po measured upto 10 hrs by LC/MS/MS analysis; assay type: ADME, organism-based; design: time < 10 hrs, dose 20 mg/kg, route po; conditions: in vivo
[10] = AUC (0 to t) in Sprague-Dawley rat at 20 mg/kg, po measured upto 10 hrs by LC/MS/MS analysis; assay type: ADME, organism-based; design: time < 10 hrs, dose 20 mg/kg, route po; conditions: in vivo
[11] = Oral bioavailability in Sprague-Dawley rat at 20 mg/kg measured upto 10 hrs by LC/MS/MS analysis; assay type: ADME, organism-based; conditions: in vivo
[12] = test system: L6; assay: Activation of Akt in rat L6 myoblasts assessed as increase in AKT phosphorylation at Ser473 at 0.1 to 25 uM by western blot analysis; assay type: cell-based; conditions: filed as activator, dose 0.1-25 µM, DDE = dose-dependent effect
[13] = molecular target: T1, AMP-activated protein kinase, AMPK (Rattus norvegicus) (UniProt P54645+Q09137+P80386+P80385+Q9QZH4+Q6V7V4+D4A7E4); assay: Activation of AMPK in rat L6 myoblasts assessed as increase in AMPK phosphorylation at Thr172 at 0.1 to 25 uM by western blot analysis; assay type: cell-based; conditions: filed as activator, dose 0.1-25 µM, DDE = dose-dependent effect
[14] = test system: Mus musculus; assay: Antidiabetic activity in db/db mouse assessed as reduction in random blood glucose level at 100 mg/kg, po bid measured up to 21 days; assay type: functional; design: scale not given: the % may be the effect or the level left; conditions: time <= 21 day
[15] = test system: Mus musculus; assay: Antidiabetic activity in db/db mouse assessed as reduction in random blood glucose level at 75 mg/kg, po bid measured up to 21 days; assay type: functional; design: scale not given: the % may be the effect or the level left; conditions: time <= 21 day
[16] = test system: Mus musculus; assay: Antidiabetic activity in db/db mouse assessed as reduction in fasting blood glucose level at 100 mg/kg, po bid measured up to 21 days; assay type: functional; design: scale not given: the % may be the effect or the level left; conditions: time <= 21 day
[17] = test system: Mus musculus; assay: Antidiabetic activity in db/db mouse assessed as reduction in fasting blood glucose level at 75 mg/kg, po bid measured up to 21 days; assay type: functional; design: scale not given: the % may be the effect or the level left; conditions: time <= 21 day
[18] = test system: Mus musculus; assay: Antidiabetic activity in db/db mouse assessed as reduction in blood glucose level at 100 mg/kg, po bid measured after 6 hrs; assay type: functional; design: scale not given: the % may be the effect or the level left
[19] = test system: Mus musculus; assay: Improvement in glucose tolerance in db/db mouse assessed as reduction in blood glucose level at 300 mg/kg, po measured after 20 days; assay type: functional, organism-based; conditions: time 20.0 day
[20] = test system: Mus musculus; assay: Improvement in glucose tolerance in db/db mouse assessed as reduction in blood glucose level at 100 mg/kg, po measured after 20 days; assay type: functional, organism-based; conditions: time 20.0 day
[21] = Toxicity in db/db mouse assessed as decrease in body weight at 100 mg/kg, po administered for 21 days; assay type: organism-based; conditions: in vivo, 504 h, time 21 day
[22] = Toxicity in db/db mouse assessed as increase in body weight at 75 mg/kg, po administered for 21 days; assay type: organism-based; conditions: in vivo, 504 h, time 21 day
[23] = Toxicity in db/db mouse assessed as reduction in triglyceride at 75 mg/kg, po administered for 21 days; assay type: organism-based; conditions: in vivo, 504 h, time 21 day
[24] = Toxicity in db/db mouse assessed as reduction in triglyceride at 100 mg/kg, po administered for 21 days; assay type: organism-based; conditions: in vivo, 504 h, time 21 day
[25] = Toxicity in db/db mouse liver assessed as reduction of fat accumulation in liver at 100 mg/kg, po bid administered for 21 days by H and E staining based microscopic analysis; assay type: organism-based; conditions: in vivo, 504 h, time 21 day
[26] = Toxicity in db/db mouse assessed as effect on muscle tissue morphology at 100 mg/kg, po bid administered for 21 days by H and E staining based microscopic analysis; assay type: organism-based; conditions: in vivo, 504 h, time 21 day
[27] = test system: L6; assay: Time dependent activation of Akt in rat L6 myoblasts assessed as increase in AKT phosphorylation at Ser473 at 10 to 180 min by western blot analysis; assay type: cell-based; conditions: filed as activator, time 10-180 min, TDE = time-dependent effect
[28] = molecular target: Eukaryotic translation initiation factor 4E-binding protein 1 (Rattus norvegicus) (UniProt Q62622); assay: Activation of 4E-BP1 in rat L6 myoblasts assessed as increase in 4E-BP1 protein level at 0.1 to 25 uM by western blot analysis; assay type: cell-based; conditions: filed as activator, dose 0.1-25 µM, DDE = dose-dependent effect
[29] = molecular target: T1, AMP-activated protein kinase, AMPK (Rattus norvegicus); assay: Time dependent activation of AMPK in rat L6 myoblasts assessed as increase in AMPK phosphorylation at Thr172 at 10 to 180 min by western blot analysis; assay type: cell-based; conditions: filed as activator, time 10-180 min, TDE = time-dependent effect
[30] = molecular target: Eukaryotic translation initiation factor 4E-binding protein 1 (Rattus norvegicus) (UniProt Q62622); assay: Time dependent activation of 4E-BP1 in rat L6 myoblasts assessed as increase in 4E-BP1 protein level at 10 to 180 min by western blot analysis; assay type: cell-based; conditions: filed as activator, time 10-180 min, TDE = time-dependent effect
[31] = test system: L6; assay: Activation of Akt in rat L6 myoblasts assessed as increase in Akt protein level at 25 uM measured after 30 mins by western blot analysis; assay type: cell-based; conditions: filed as activator
[32] = molecular target: T1, AMP-activated protein kinase, AMPK (Rattus norvegicus); assay: Activation of AMPK in rat L6 myoblasts assessed as increase in AMPK protein level at 25 uM measured after 30 mins by western blot analysis; assay type: cell-based; conditions: filed as activator
[33] = molecular target: Eukaryotic translation initiation factor 4E-binding protein 1 (Rattus norvegicus) (UniProt Q62622); assay: Activation of 4E-BP1 in rat L6 myoblasts assessed as increase in 4E-BP1 protein level at 25 uM measured after 30 mins by western blot analysis; assay type: cell-based; conditions: filed as activator
[34] = test system: L6; assay: Activation of Akt in rat L6 myoblasts assessed as increase in AKT phosphorylation at Ser473 at 25 uM measured after 30 mins by western blot analysis; assay type: cell-based; conditions: filed as activator
[35] = molecular target: T1, AMP-activated protein kinase, AMPK (Rattus norvegicus); assay: Activation of AMPK in rat L6 myoblasts assessed as increase in AMPK phosphorylation at Thr172 at 25 uM measured after 30 mins by western blot analysis; assay type: cell-based; conditions: filed as activator
[36] = Toxicity in db/db mouse assessed as reduction in total cholesterol at 75 to 100 mg/kg, po administered for 21 days; assay type: organism-based; conditions: in vivo, 504 h, dose 75-100 mg/kg, time 21 day
[37] = Toxicity in db/db mouse assessed as effect on pancreas morphology at 100 mg/kg, po bid administered for 21 days by H and E staining based microscopic analysis; assay type: organism-based; conditions: in vivo, 504 h, time 21 day
[38] = test system: Liver; assay: Effect on 4E-BP1 in db/db mouse liver assessed as increase in 4E-BP1 protein level at 100 mg/kg, po bid administered for 21 days by immunohistochemical staining analysis; assay type: functional, organism-based; conditions: time 21.0 day
[39] = test system: Muscle tissue; assay: Effect on 4E-BP1 in db/db mouse muscle tissue assessed as increase in 4E-BP1 protein level at 100 mg/kg, po bid administered for 21 days by immunohistochemical staining analysis; assay type: functional, organism-based; conditions: time 21.0 day
[40] = test system: Pancreas; assay: Effect on 4E-BP1 in db/db mouse pancreas assessed as increase in 4E-BP1 protein level at 100 mg/kg, po bid administered for 21 days by immunohistochemical staining analysis; assay type: functional, organism-based; conditions: time 21.0 day
[41] = test system: Mus musculus; assay: Antidiabetic activity in db/db mouse assessed as reduction in random blood glucose level at 300 mg/kg, po bid measured up to 21 days; assay type: functional; design: scale not given: the % may be the effect or the level left; conditions: time <= 21 day
[42] = test system: Mus musculus; assay: Antidiabetic activity in db/db mouse assessed as reduction in fasting blood glucose level at 300 mg/kg, po bid measured up to 21 days; assay type: functional; design: scale not given: the % may be the effect or the level left; conditions: time <= 21 day
[43] = test system: Mus musculus; assay: Antidiabetic activity in db/db mouse assessed as reduction in blood glucose level at 300 mg/kg, po bid measured after 6 hrs; assay type: functional; design: scale not given: the % may be the effect or the level left
[44] = Toxicity in db/db mouse assessed as increase in body weight at 300 mg/kg, po administered for 21 days; assay type: organism-based; conditions: in vivo, 504 h, time 21 day
[45] = Toxicity in db/db mouse assessed as reduction in triglyceride at 300 mg/kg, po administered for 21 days; assay type: organism-based; conditions: in vivo, 504 h, time 21 day
[46] = Toxicity in db/db mouse assessed as reduction in total cholesterol at 300 mg/kg, po administered for 21 days; assay type: organism-based; conditions: in vivo, 504 h, time 21 day
[47] = Toxicity in db/db mouse liver assessed as reduction of fat accumulation in liver at 300 mg/kg, po bid administered for 21 days by H and E staining based microscopic analysis; assay type: organism-based; conditions: in vivo, 504 h, time 21 day
[48] = Toxicity in db/db mouse assessed as effect on muscle tissue morphology at 300 mg/kg, po bid administered for 21 days by H and E staining based microscopic analysis; assay type: organism-based; conditions: in vivo, 504 h, time 21 day
[49] = Toxicity in db/db mouse assessed as effect on pancreas morphology at 300 mg/kg, po bid administered for 21 days by H and E staining based microscopic analysis; assay type: organism-based; conditions: in vivo, 504 h, time 21 day

Chain of Eukaryotic translation initiation factor 4E-binding protein 1 (Rattus norvegicus) (Q62622 whole entry): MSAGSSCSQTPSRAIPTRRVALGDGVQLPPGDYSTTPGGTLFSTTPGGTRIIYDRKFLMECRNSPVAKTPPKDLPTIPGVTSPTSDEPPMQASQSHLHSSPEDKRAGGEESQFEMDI

`COc1ccc2c(c1)[C@H]1[C@H](CCN1CCc1ccc(Cl)cc1)[C@H]1CCCN21` (racemic) showed an Activity [1] of 215.6%, an EC50 [2] of 2700 nM and an Activity [3] of 81.9 pmol/µL. It also gave a half-life [4] of 3.9 h, a Cmax [5] of 542 ng/mL and an AUC(0-t) at 24 h [6] of 588 ng·h/mL. For the same compound, the Tmax [7] was 0.5 h, the half-life [8] was 12.4 h and the Cmax [9] was 141 ng/mL. The AUC(0-t) at 10 h [10] was 469 ng·h/mL, the bioavailability [11] was 19.9% and the Activity [12] was “Dde”. The Activity [13] was “Dde”, the Activity [14] was 79% and the Activity [15] was 77.2%. For the same compound, the Activity [16] was 62.1%, the Activity [17] was 65.5% and the Activity [18] was 38.1%. The Activity [19] was “Active”, the Activity [20] was “Active” and the Activity [21] was “Toxic”. For the same compound, the Activity [22] was “Non-Toxic”, the Activity [23] was “Toxic” and the Activity [24] was “Toxic”. For the same compound, the Activity [25] was “Toxic”, the Activity [26] was “Non-Toxic” and the Activity [27] was “Tde”. The Activity [28] was “Dde”, the Activity [29] was “Tde” and the Activity [30] was “Tde”. For the same compound, the Activity [31] was “Active”, the Activity [32] was “Active” and the fold change (FC) [33] was 2. For the same compound, the Activity [34] was “Active”, the Activity [35] was “Active” and the Activity [36] was “Toxic”. The Activity [37] was “Non-Toxic”, the Activity [38] was “Active” and the Activity [39] was “Active”. For the same compound, the Activity [40] was “Active”.
For `CN(C)C(=N)NC(=N)N` [METFORMIN], the Activity [41] was 40.3%, the Activity [42] was 26.6% and the Activity [43] was 49.7%. For the same compound, the Activity [44] was “Non-Toxic”, the Activity [45] was “Toxic” and the Activity [46] was “Toxic”. For the same compound, the Activity [47] was “Toxic”, the Activity [48] was “Non-Toxic” and the Activity [49] was “Non-Toxic”.
